Laboratory results published in PubChem BioAssay AID488827 (NMMLSC, 2010).
Activity calls are given as the source filed them.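 Rule for the calls: active = EC50 at or below 33 µM; inactive = the rest.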

What follows are compounds tested on S. cerevisiae CIT2-GFP strain, flow cytometry GFP, 3 h (assay: CIT2-GFP expression modulators in yeast, SAR follow-up, flow cytometry, KU analogs, dose response (AID 488827)).

Row | Compound | EC50
1 | O=[N+]([O-])c1cc(Cl)c2cccnc2c1O | 33 µM (inactive)
2 | CCOC(=O)CCS(=O)(=O)c1nc(-c2ccccc2)cc(C(F)(F)F)n1 | 107 µM (inactive)
3 | CN1CCN(C(c2ccc(C(F)(F)F)cc2)c2ccc3cccnc3c2O)CC1 (configuration not stated) | 87.1 µM (inactive)
4 | CN(C)CCCNc1nc(N)c([N+](=O)[O-])c(Nc2cccc(F)c2)n1 | 279 µM (inactive)
5 | Nc1nc(Nc2ccccc2)nc(Nc2cccc(F)c2)c1[N+](=O)[O-] | 61.4 µM (inactive)
6 | CNc1nc(N)c([N+](=O)[O-])c(Nc2ccccc2OC)n1 | 3.99 µM
7 | CC(C)(C)C(=O)NC(=S)NNC(=O)c1ccc(-c2ccccc2)cc1 | 66.9 µM (inactive)
8 | O=C(Oc1c(Cl)cc(Cl)c2cccnc12)c1ccco1 | 87.4 µM (inactive)
9 | Cc1ccc(C(c2cc(Cl)c3cccnc3c2O)N2CCN(C)CC2)cc1 (configuration not stated) | 45.9 µM (inactive)
10 | O=S(=O)(CCN(CCS(=O)(=O)C(F)(F)F)CC1CCCO1)C(F)(F)F (configuration not stated) | 65.2 µM (inactive)
11 | O=C(Oc1ccnc2cc(Cl)ccc12)N1CCCCCC1 | 298 µM (inactive)
12 | Nc1nc(Nc2cccc(F)c2)nc(Nc2cccc(F)c2)c1[N+](=O)[O-] | 36.6 µM (inactive)
13 | CNc1nc(N)c([N+](=O)[O-])c(Nc2ccc(F)cc2)n1 | 56.3 µM (inactive)
14 | Clc1ccc(N=c2ssnc2Cl)cc1 | 81.1 µM (inactive)
15 | CCOC(=O)CS(=O)(=O)c1nc(-c2ccccc2)cc(C(F)(F)F)n1 | 109 µM (inactive)
16 | COc1ccc([N+](=O)[O-])c(S(=O)(=O)c2ccc(Cl)cc2)n1 | 124 µM (inactive)
17 | CNc1nc(N)c([N+](=O)[O-])c(NC2CCCCC2)n1 | 3.75 µM
18 | CCOC(=O)CSC1=NC(=O)/C(=C\c2ccc(Cl)cc2)S1 | 120 µM (inactive)
19 | CSC1=NS(=O)(=O)c2c(C)nn(C)c2S1 | 294 µM (inactive)
20 | CNc1nc(N)c([N+](=O)[O-])c(Nc2cccc(F)c2)n1 | 2.52 µM
21 | Cc1ccc(/C=C2/C(=O)ON=C2c2ccccc2)o1 | 39.6 µM (inactive)

Next, values leading:

Row | EC50 | Compound
22 | 19.1 µM | CNc1nc(N)c([N+](=O)[O-])c(Nc2ccccc2)n1
23 | 166 µM (inactive) | Oc1c(I)cc(I)c2cccnc12
24 | 60.6 µM (inactive) | O=C(Nc1nc(-c2ccccn2)cs1)c1cc2ccccc2o1
25 | > 300 µM (inactive) | COc1ccc([N+](=O)[O-])c(S(=O)(=O)c2ccccc2)n1
26 | 93.3 µM (inactive) | Nc1nc(NCCc2ccccc2)nc(Nc2cccc(F)c2)c1[N+](=O)[O-]
27 | 1.07 µM | CNc1nc(N)c([N+](=O)[O-])c(Nc2cccc(Cl)c2)n1
28 | 188 µM (inactive) | O=C1ON=C(c2ccccc2)/C1=C\c1ccco1
29 | 161 µM (inactive) | Cc1c(C(=O)Nc2nc(-c3ccccn3)cs2)oc2ccccc12
30 | 191 µM (inactive) | Cc1ccc(S(=O)(=O)c2ncccc2[N+](=O)[O-])cc1
31 | 251 µM (inactive) | O=C(Oc1c(Cl)cc(Cl)c2cccnc12)c1cccc([N+](=O)[O-])c1
32 | 71 µM (inactive) | C/C(=N\NC(=O)c1ccc(C(C)(C)C)cc1)c1ccccn1
